# Data published in the supplement of paper PMC10307832.
# Legend:
# Assay in all cases: relative viability (nuclei count vs DMSO), 5 days (fraction); higher = more cells survive
# Docetaxel = compound: CC(=O)O[C@@]12CO[C@@H]1C[C@H](O)[C@@]1(C)C(=O)[C@H](O)C3=C(C)[C@@H](OC(=O)[C@H](O)[C@@H](NC(=O)OC(C)(C)C)c4ccccc4)C[C@@](O)([C@@H](OC(=O)c4ccccc4)[C@H]21)C3(C)C [Docetaxel]
# How it was run: (§1)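 For viability, nuclei in each treated well were divided by nuclei in vehicle wells and the median across plates was taken. Lung cancer cell lines in 1536-well plates were pinned with five library-drug doses (not always all listed) spaced by √10, cultured 5 days without medium change, and imaged at 4× after Hoechst staining, with plates passing only at control CV below 25% and at least one doubling.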
# Tivozanib = compound: COc1cc2nccc(Oc3ccc(NC(=O)Nc4cc(C)on4)c(Cl)c3)c2cc1OC [Tivozanib]
# How it was run: as §1
# [1] = compound: Cc1cnc(-c2cnc(NCCNc3ccc(C#N)cn3)nc2-c2ccc(Cl)cc2Cl)[nH]1
# How it was run: as §1
# JQ1 = compound: Cc1sc2c(c1C)C(c1ccc(Cl)cc1)=N[C@@H](CC(=O)OC(C)(C)C)c1nnc(C)n1-2 [JQ1]
# How it was run: as §1
# Cytarabine = compound: Nc1ccn([C@@H]2O[C@H](CO)[C@@H](O)[C@@H]2O)c(=O)n1 [Cytarabine]
# How it was run: as §1
# CPI-613 = compound: O=C(O)CCCCC(CCSCc1ccccc1)SCc1ccccc1 [CPI-613]
# How it was run: as §1
# Pimozide = compound: O=c1[nH]c2ccccc2n1C1CCN(CCCC(c2ccc(F)cc2)c2ccc(F)cc2)CC1 [Pimozide]
# How it was run: as §1
Cell Line,relative viability (Docetaxel; 0.0002 µM),relative viability (Docetaxel; 0.000632 µM),relative viability (Docetaxel; 0.002 µM),relative viability (Docetaxel; 0.006325 µM),relative viability (Docetaxel; 0.02 µM),relative viability (Tivozanib; 0.005 µM),relative viability (Tivozanib; 0.01581 µM),relative viability (Tivozanib; 0.05 µM),relative viability (Tivozanib; 0.1581 µM),relative viability (Tivozanib; 0.5 µM),relative viability ([1]; 0.08 µM),relative viability ([1]; 0.253 µM),relative viability ([1]; 0.8 µM),relative viability ([1]; 2.53 µM),relative viability (JQ1; 0.04 µM),relative viability (JQ1; 0.1265 µM),relative viability (JQ1; 0.4 µM),relative viability (JQ1; 1.265 µM),relative viability (JQ1; 4 µM),relative viability (Cytarabine; 0.005 µM),relative viability (Cytarabine; 0.01581 µM),relative viability (Cytarabine; 0.05 µM),relative viability (Cytarabine; 0.1581 µM),relative viability (Cytarabine; 0.5 µM),relative viability (CPI-613; 5 µM),relative viability (CPI-613; 15.81 µM),relative viability (CPI-613; 50 µM),relative viability (CPI-613; 158.11 µM),relative viability (CPI-613; 500 µM),relative viability (Pimozide; 0.08 µM),relative viability (Pimozide; 0.253 µM),relative viability (Pimozide; 0.8 µM),relative viability (Pimozide; 2.53 µM),relative viability (Pimozide; 8 µM)
ChaGo-K-1,1,0.691,0.636,0.349,0.196,0.979,0.956,0.97,0.909,0.921,0.987,0.854,1.02,0.939,0.93,0.845,0.956,0.901,0.743,0.687,0.681,0.509,0.383,0.283,0.918,0.981,0.975,0.705,0.411,1.08,0.95,0.975,0.96,0.961
EBC-1,0.89,0.693,0.241,0.25,0.152,0.951,0.96,0.979,0.929,0.918,0.982,0.914,0.975,0.987,0.922,0.596,0.372,0.138,0.141,0.817,0.816,0.623,0.478,0.336,0.962,0.823,0.828,0.661,0.556,0.996,0.94,0.899,0.901,0.942
EKVX,0.97,0.874,0.462,0.262,0.176,0.908,0.989,1.09,0.939,0.971,1,0.824,0.975,0.835,0.997,0.781,0.939,0.827,0.769,1.02,0.913,0.694,0.364,0.362,0.935,0.959,0.932,0.628,0.935,–,0.906,0.923,0.978,0.984
EMC-BAC-2,0.905,0.736,0.483,0.304,0.268,0.935,1.06,1,0.752,0.792,1.02,0.96,0.923,0.897,0.922,0.667,0.842,0.519,0.48,1.04,0.866,0.492,0.349,0.257,0.973,0.875,0.982,0.782,0.189,0.969,0.933,0.884,0.933,0.955
EPLC-272H,0.878,0.533,0.244,0.104,0.071,0.908,0.885,0.947,0.731,0.635,1.02,0.836,0.937,0.962,0.801,0.797,0.789,0.433,0.289,0.768,0.572,0.487,0.331,0.173,0.9,0.834,0.839,0.783,0.449,0.852,0.896,0.842,0.7,0.61
H3255,0.899,0.978,0.657,0.336,0.3,0.922,0.985,0.882,0.828,0.926,1.02,0.887,0.994,0.999,0.874,0.665,0.912,0.456,0.336,0.96,0.922,0.763,0.695,0.591,0.94,0.803,0.984,0.92,0.888,–,0.913,0.907,0.907,0.948
HARA,0.796,0.46,0.197,0.188,0.0932,0.928,0.963,0.995,0.937,0.976,1.01,0.737,0.859,0.833,0.867,0.569,0.533,0.322,0.288,0.788,0.716,0.397,0.24,0.221,0.909,0.862,0.984,0.6,0.0433,0.812,0.995,0.876,0.952,0.908
HCC-15,0.8,0.536,0.229,0.257,0.149,0.962,0.922,0.949,1.07,0.89,1.06,0.686,0.953,0.892,0.97,–,0.859,0.656,0.6,1.07,0.988,0.966,0.828,0.547,0.96,0.914,0.908,0.465,0.264,1.05,0.965,0.725,0.961,0.9
HCC-44,0.956,0.949,0.587,0.296,0.198,0.936,0.949,0.976,1.02,0.87,0.986,0.867,1.07,1.08,0.977,0.776,0.778,0.438,0.308,0.989,0.882,0.643,0.614,0.356,1.01,0.958,1.03,0.869,0.51,0.986,0.95,0.876,0.911,0.952
HCC-78,0.91,0.784,0.48,0.482,0.382,0.85,0.942,0.955,0.732,0.757,0.999,0.807,0.936,0.928,0.936,0.853,0.843,0.601,0.434,1.09,0.844,0.593,0.444,0.339,0.875,0.835,0.994,0.921,0.839,0.859,–,0.828,0.837,0.932
